The subject of assay [1] is PBL of SLE patients. Description: TGF-β secretion by PBL of SLE patients stimulated with the human 16/6Id mAb (ELISA). Type of assay: cell-based. Conditions: for secretion of TGF-β by PBL: one representative SLE patient, FIG. 9; for Maximum Up-regulation % (TGF-β secretion): percent secretion above that with 16/6Id alone (mean 636 ± 25 pg/ml = 100%); for Up-regulation of TGF-β %: share of 19 SLE patients with up-regulation. The protocol:
For this purpose, supernatants were removed from cultures of PBL of various SLE patients following 48 hours incubation with the human 16/6Id mAb in the absence or presence of the peptides hCDR1 or hCDR3. TGF-β was determined by ELISA according to the manufacturer's instructions. Briefly, Maxisorb plates (Nunc) were coated with recombinant human TGFβsRII/Fc chimera (R&D Systems) diluted in PBS (100 ng/ml). After blocking, cell supernatants were added. After 18 hours incubation the detecting biotinylated anti-human TGF-β antibody (R&D Systems) was added. The substrate solution used was the TMB Colour Reagent (Helix Diagnostics) and enzyme activity was evaluated by the MRX ELISA reader using the 570 nm and 630 nm filters.

In assay [2] the test system is MMP-9. Description: MMP-9 activity in sera of (NZB×NZW)F1 mice (gel zymography). In kind it is in vivo. Particulars: 300 μg s.c. once a week from age 7 months; sera after 5 injections; FIG. 23. Here is the method: (§1) Induction and treatment of experimental SLE. In order to induce experimental SLE, BALB/c mice were immunized with 1-2 μg of the human mAb 16/6Id and boosted 3 weeks later. For the prevention of experimental SLE, mice were given hCDR1 or hCDR3 (mCDR1 or revmCDR1 as control peptide in Example 12) intravenously (i.v.) or s.c. concomitant with the immunization, and were injected weekly thereafter for 5 weeks. Treatment of an established disease started three and a half months following disease induction with the 16/6Id, when clinical manifestations were already observed. In Example 12, mice received 10 weekly injections (i.v. or s.c.) of mCDR1 or revmCDR1 at a dose of 100 μg/mouse. Prevention and treatment of SLE-like disease in (NZB×NZW)F1 mice with the hCDR1 or mCDR1 peptide. For prevention of SLE, mice at the age of 2 months, before disease manifestations are observed, were injected s.c. with hCDR1 (or mCDR1 in Example 12, 250 μg/mouse) once a week for 10 weeks. To treat an established disease, mice at the age of 5-7 months were injected with hCDR1 (in Example 12, mCDR1 s.c., 250 μg/mouse) once a week for 10 weeks. Proliferative Responses. PBL were isolated from heparinized venous blood by Ficoll-Hypaque (Pharmacia) density-gradient centrifugation. All assays were performed, in triplicate, in flat-bottomed microtiter plates (Falcon, Becton Dickinson, Oxmard, Calif., USA) in which 2×10^5 PBL were cultured in enriched RPMI-1640 as described (Dayan et al., 2000). The PBL were exposed to various concentrations (0.1-40 μg/well) of the human anti-DNA 16/6Id mAb with and without the addition of the various CDR-based peptides at a concentration of at least 10-fold excess over that of the 16/6Id. Phytohemagglutinin (PHA; 2 μg/well) was used as a control for culture conditions at each experiment. The cultures were incubated in 7.5% CO2 at 37° C. for 6 days. Eighteen hours before the cells were harvested, [^3H]-thymidine (0.5μ Ci of 5 Ci/mmol) (Nuclear Research Center, Negev, Israel) was added to all cultures. Results are expressed as the mean thymidine incorporation in counts per minute (CPM) of triplicate culture±SD, or as stimulation index (S.I.; the ratio of mean CPM at the optimal concentration of the human 16/6Id to the mean CPM in the presence of medium alone). […] TGF-β was determined by an ELISA. […] The substrate solution used was TMB color Reagent (Helix Diagnostics, West Sacramento, Calif.), and enzyme activity was evaluated by using 570- and 630-nm filters. […] Proteinuria was measured semiquantitatively by using Combistix kit (Ames Division, Bayer Diagnostics, Newbury, U.K.). White blood cells (WBC, for leukopenia) were counted after a 10-fold dilution of heparinized blood in distilled water containing 1% acetic acid (vol/vol). […]

For assay [3], the system named is lymph node cultures of BALB/c mice. Description: Cytokines in supernatants of 16/6Id-stimulated lymph node cultures of BALB/c mice with experimental SLE. Type of assay: in vivo. Particulars: after 10 treatment injections. Here is the method: as §1

As for “GYYWSWIRQPPGKGEEWIG (Human) [hCDR1, 19-mer peptide based on the CDR1 of the heavy chain of the human 16/6Id mAb]”, in assay [1], the “secretion of TGF-β by PBL” value is on record as “significant up-regulation”, the “Maximum Up-regulation % (TGF-β secretion)” value worked out at 305 ± 221% and the “Up-regulation of TGF-β %” value was 100 (19/19) %. Also, the “activity of MMP-9 in pooled sera” value in assay [2] is given as “down regulated”. For the same sequence, the “levels of TGF-β” value in assay [3] (FIG. 15D, 15E (spleen cells)) was “up-regulated”. Moreover, the “INF-γ in supernatants of 16/6Id stimulated lymph node cultures” value in assay [3] (both doses (200 and 300 μg), FIG. 15A) is “down regulated”. Further, the “TNF-α in supernatants of 16/6Id stimulated lymph node cultures” value in assay [3] (both doses (200 and 300 μg), FIG. 15B) was “down regulated”. The “IL-10 in supernatants of 16/6Id stimulated lymph node cultures” value in assay [3] (both doses (200 and 300 μg), FIG. 15C) is “down regulated”.

“YYCARGLLRGGWNDVDYYGMDV (Human) [hCDR3, peptide based on the CDR3 of the heavy chain of the human 16/6Id mAb]”: in assay [1], the “secretion of TGF-β by PBL” value was “significant up-regulation”, the “Maximum Up-regulation % (TGF-β secretion)” value was found to be 338 ± 242% and the “Up-regulation of TGF-β %” value is given as 100 (19/19) %.
